Assay results reported in patent publication US4072574A, “System for in vitro assay for mutagenicity and/or carcinogenicity of chemicals or other exogenous agents” (priority 1976, dated 1978).

Columns and labels:
[1] = known status of the compound; cited from earlier work
AMV DNA polymerase = assay: Fidelity of in vitro DNA synthesis (error frequency) with AMV DNA polymerase copying synthetic polynucleotide templates; settings: for effect on the fidelity of DNA synthesis (in words): poly (A).oligo (dT)
Source text: In this invention, the ability of carcinogens to decrease the fidelity of in vitro DNA synthesis will be used to screen for carcinogenic or mutagenic agents. The system uses synthetic polynucleotides of defined composition which may be copied in the test tubes with procaryotic, eucaryotic or viral DNA polymerases. The use of synthetic polynucleotides of defined composition allows the measurement of the simultaneous incorporation of the correct, complementary nucleotide and an incorrect, non-complementary nucleotide. The correct nucleotide is labeled with [α-^32 P] of low specific activity and the incorrect nucleotide is labeled with [^3 H] of high specific activity. Through this double labeled reaction it is possible to determine the simultaneous incorporation of both nucleotides and thus to determine an error frequency. The error frequency may be defined as the ratio of the incorrect/correct nucleotide incorporation. Agents which increase this error frequency may be scored as positive. […] Agents which score positive would be checked using different templates to underscore the positive results. In this system different polymerases will be used as well as different templates. One would expect that most carcinogens would change the fidelity of DNA synthesis with different polymerases as well as with different templates though this need not be the case.
Each assay will consist of a polymerase, a polynucleotide template that only contains one or two nucleotides, a complementary nucleotide and a non-complementary nucleotide as well as magnesium. Both of the nucleotides will be labeled by radioactive precursors and the ratio between the two is to be used for a measure of error frequency in the system. In instances where a template requires two complementary nucleotides, only one will be radioactively labeled.
Reactions (total volume 0.05 ml) which measured complementary nucleotide incorporation contained 50 mM Tris-HCL (pH 8.0), 20 mM KCl, 5 mM dithiothreitol, 5 mM MgCl2, 2μg BSA, […] [α-^32 P] -dTTP (60 dpm/pmole), 1μg poly (A).oligo (dT) (1:1.5 mass ratio), and 0.45 μg of AMV DNA polymerase. For simultaneous quantitation of complementary and non-complementary nucleotide incorporation each reaction was modified to contain 26μM [α-^32 P]dTTP (12 dpm/pmole) and 23μM [^3 H]-dCTP (50,000 dpm/pmole). […] Metals were added directly to the reaction mixture as aqueous solutions of chloride salts. All reactions were incubated for 60 min. at 37° C. Incorporation of radioactive nucleotides into an acid-insoluble and alkali-resistant product was determined by using the precipitation-solubilization procedure as described by Battula and Loeb. All experiments were performed in triplicate and the averages were determined.
In order to determine the effect of different metals on the accuracy of DNA replication, metal cations were added as chloride salts directly to the polymerase reaction. In these experiments, poly (A).oligo (dT) was the template-primer and the simultaneous incorporation of complementary nucleotide, [α-^32 P]-dTMP, and the non-complementery nucleotide, [^3 H]-dCMP, was determined.
The effect of metal salts on the fidelity of DNA synthesis was examined by testing each of the metal salts at a minimum of seven different concentrations.

[2] = Table 1, template poly (C).oligo (dG), classes 1-3 not defined
[3] = 0.08 mM CrCl2, template in drawing 1
[4] = 0.16 mM CrCl2, template in drawing 1
[5] = 0.24 mM CrCl2, template in drawing 1
[6] = 0.64 mM CrCl2, template in drawing 1
[7] = Table 1, template poly [d(A-T)], classes 1-3 not defined
[8] = 0.02 mM CuCl2, template in drawing 2
[9] = 0.04 mM CuCl2, template in drawing 2
[10] = 0.08 mM CuCl2, template in drawing 2
[11] = 0.12 mM CuCl2, template in drawing 2
[12] = 0.8 mM Ca(C2 H3 O2)2, template in drawing 3
[13] = 2.4 mM Ca(C2 H3 O2)2, template in drawing 3
[14] = 4.0 mM Ca(C2 H3 O2)2, template in drawing 3
[15] = 4.8 mM Ca(C2 H3 O2)2, template in drawing 3

N.N.O=S(=O)(O)O [(NH4)2 SO4]
Carcinogen or Mutagen [1]: - | Class (AMV DNA polymerase; [2]): 2 | Metal Concentration which yielded the largest observed change in error rate (AMV DNA polymerase; template poly (C).oligo (dG)): 120 mM

[Cl][Cr][Cl] [CrCl2]
Carcinogen or Mutagen [1]: + | Complementary Deoxynucleotide Incorporation (AMV DNA polymerase; [3]): 133 pmol | Error Frequency (AMV DNA polymerase; [3]): 1/578 | Non-complementary Deoxynucleotide Incorporation (AMV DNA polymerase; [3]): 0.23 pmol | Complementary Deoxynucleotide Incorporation (AMV DNA polymerase; [4]): 169 pmol | Error Frequency (AMV DNA polymerase; [4]): 1/528 | Non-complementary Deoxynucleotide Incorporation (AMV DNA polymerase; [4]): 0.32 pmol | Complementary Deoxynucleotide Incorporation (AMV DNA polymerase; [5]): 127 pmol | Error Frequency (AMV DNA polymerase; [5]): 1/363 | Non-complementary Deoxynucleotide Incorporation (AMV DNA polymerase; [5]): 0.35 pmol | Complementary Deoxynucleotide Incorporation (AMV DNA polymerase; [6]): 71 pmol | Error Frequency (AMV DNA polymerase; [6]): 1/192 | Non-complementary Deoxynucleotide Incorporation (AMV DNA polymerase; [6]): 0.37 pmol | Class (AMV DNA polymerase; [7]): 1 | Metal Concentration which yielded the largest observed change in error rate (AMV DNA polymerase; template poly [d(A-T)]): 0.64 mM

[Cl-].[K+] [KCl, potassium chloride]
Carcinogen or Mutagen [1]: - | effect on the fidelity of DNA synthesis (in words) (AMV DNA polymerase; 1 mM to 300 mM): did not alter the fidelity of DNA synthesis | Class (AMV DNA polymerase; [7]): 2 | Metal Concentration which yielded the largest observed change in error rate (AMV DNA polymerase; template poly [d(A-T)]): 150 mM

[Cl][Cu][Cl] [CuCl2]
Carcinogen or Mutagen [1]: ± | Complementary Deoxynucleotide Incorporation (AMV DNA polymerase; [8]): 385 pmol | Error Frequency (AMV DNA polymerase; [8]): 1/875 | Non-complementary Deoxynucleotide Incorporation (AMV DNA polymerase; [8]): 0.44 pmol | Complementary Deoxynucleotide Incorporation (AMV DNA polymerase; [9]): 130 pmol | Error Frequency (AMV DNA polymerase; [9]): 1/722 | Non-complementary Deoxynucleotide Incorporation (AMV DNA polymerase; [9]): 0.18 pmol | Complementary Deoxynucleotide Incorporation (AMV DNA polymerase; [10]): 54 pmol | Error Frequency (AMV DNA polymerase; [10]): 1/540 | Non-complementary Deoxynucleotide Incorporation (AMV DNA polymerase; [10]): 0.10 pmol | Complementary Deoxynucleotide Incorporation (AMV DNA polymerase; [11]): 36 pmol | Error Frequency (AMV DNA polymerase; [11]): 1/450 | Non-complementary Deoxynucleotide Incorporation (AMV DNA polymerase; [11]): 0.08 pmol | Class (AMV DNA polymerase; [2]): 1 | Metal Concentration which yielded the largest observed change in error rate (AMV DNA polymerase; template poly (C).oligo (dG)): 0.08 mM

[Cl-].[Na+] [NaCl]
Class (AMV DNA polymerase; [7]): 2 | Metal Concentration which yielded the largest observed change in error rate (AMV DNA polymerase; template poly [d(A-T)]): 120 mM

[Cl-].[Rb+] [RbCl2]
Carcinogen or Mutagen [1]: - | Class (AMV DNA polymerase; [7]): 2 | Metal Concentration which yielded the largest observed change in error rate (AMV DNA polymerase; template poly [d(A-T)]): 20 mM

NCCCCNCCCN [spermidine]
effect on the fidelity of DNA synthesis (in words) (AMV DNA polymerase; 0.1 to 5 mM): did not alter the fidelity of DNA synthesis

O=P([O-])(O)O.[K+] [KH2 PO4]
Carcinogen or Mutagen [1]: - | Class (AMV DNA polymerase; [7]): 2 | Metal Concentration which yielded the largest observed change in error rate (AMV DNA polymerase; template poly [d(A-T)]): 80 mM

[Cl][Cd][Cl] [CdCl2]
Carcinogen or Mutagen [1]: + | Class (AMV DNA polymerase; [2]): 1 | Metal Concentration which yielded the largest observed change in error rate (AMV DNA polymerase; template poly (C).oligo (dG)): 0.04 mM

CC(=O)O [Ca(C2 H3 O2)2]
Complementary Deoxynucleotide Incorporation (AMV DNA polymerase; [12]): 217 pmol | Error Frequency (AMV DNA polymerase; [12]): 1/986 | Non-complementary Deoxynucleotide Incorporation (AMV DNA polymerase; [12]): 0.22 pmol | Complementary Deoxynucleotide Incorporation (AMV DNA polymerase; [13]): 78 pmol | Error Frequency (AMV DNA polymerase; [13]): 1/975 | Non-complementary Deoxynucleotide Incorporation (AMV DNA polymerase; [13]): 0.08 pmol | Complementary Deoxynucleotide Incorporation (AMV DNA polymerase; [14]): 39 pmol | Error Frequency (AMV DNA polymerase; [14]): 1/975 | Non-complementary Deoxynucleotide Incorporation (AMV DNA polymerase; [14]): 0.04 pmol | Complementary Deoxynucleotide Incorporation (AMV DNA polymerase; [15]): 17 pmol | Error Frequency (AMV DNA polymerase; [15]): 1/850 | Non-complementary Deoxynucleotide Incorporation (AMV DNA polymerase; [15]): 0.02 pmol | Class (AMV DNA polymerase; Table 2, classes not defined): 2

[O]=[Cr](=[O])=[O] [CrO3]
Carcinogen or Mutagen [1]: + | Class (AMV DNA polymerase; [7]): 1 | Metal Concentration which yielded the largest observed change in error rate (AMV DNA polymerase; template poly [d(A-T)]): 16 mM

Cn1c(=O)c2c(ncn2C)n(C)c1=O [caffeine]
effect on the fidelity of DNA synthesis (in words) (AMV DNA polymerase; 0.1-20 mM): did not alter the fidelity of DNA synthesis
